This note sets out measurements from US20150342954A1, “2-BENZYL, 3-(PYRIMIDIN-2-YL) SUBSTITUTED PYRAZOLES USEFUL AS SGC STIMULATORS” (IRONWOOD PHARMACEUTICALS, INC., priority 2011, published 2015).

Read-outs that look alike come from different tables or passages of the source.

For experiment [1], the target named is T1, Human soluble guanylate cyclase enzyme (hsGC) (Homo sapiens, UniProt Q02108+Q02153).
T1 construct: purchased Enzo Inc. ALX-201-177
T1 sequence (Q02153 1-619): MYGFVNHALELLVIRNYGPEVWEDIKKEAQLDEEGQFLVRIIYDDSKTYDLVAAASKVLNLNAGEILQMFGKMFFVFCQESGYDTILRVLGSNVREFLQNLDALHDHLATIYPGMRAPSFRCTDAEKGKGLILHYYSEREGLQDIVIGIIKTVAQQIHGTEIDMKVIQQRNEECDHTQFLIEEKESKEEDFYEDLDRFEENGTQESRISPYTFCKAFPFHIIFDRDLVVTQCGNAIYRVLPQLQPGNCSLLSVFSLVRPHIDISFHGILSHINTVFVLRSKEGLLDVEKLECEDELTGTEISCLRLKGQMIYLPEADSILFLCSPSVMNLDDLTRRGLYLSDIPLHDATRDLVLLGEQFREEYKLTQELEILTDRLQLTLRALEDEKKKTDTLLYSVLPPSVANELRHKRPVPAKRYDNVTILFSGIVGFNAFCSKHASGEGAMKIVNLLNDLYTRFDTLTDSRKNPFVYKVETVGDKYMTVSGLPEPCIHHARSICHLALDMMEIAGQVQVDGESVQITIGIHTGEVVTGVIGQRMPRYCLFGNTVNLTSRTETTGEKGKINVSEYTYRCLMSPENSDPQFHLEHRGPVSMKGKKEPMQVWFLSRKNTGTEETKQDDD
T1 sequence (Q02108 1-690): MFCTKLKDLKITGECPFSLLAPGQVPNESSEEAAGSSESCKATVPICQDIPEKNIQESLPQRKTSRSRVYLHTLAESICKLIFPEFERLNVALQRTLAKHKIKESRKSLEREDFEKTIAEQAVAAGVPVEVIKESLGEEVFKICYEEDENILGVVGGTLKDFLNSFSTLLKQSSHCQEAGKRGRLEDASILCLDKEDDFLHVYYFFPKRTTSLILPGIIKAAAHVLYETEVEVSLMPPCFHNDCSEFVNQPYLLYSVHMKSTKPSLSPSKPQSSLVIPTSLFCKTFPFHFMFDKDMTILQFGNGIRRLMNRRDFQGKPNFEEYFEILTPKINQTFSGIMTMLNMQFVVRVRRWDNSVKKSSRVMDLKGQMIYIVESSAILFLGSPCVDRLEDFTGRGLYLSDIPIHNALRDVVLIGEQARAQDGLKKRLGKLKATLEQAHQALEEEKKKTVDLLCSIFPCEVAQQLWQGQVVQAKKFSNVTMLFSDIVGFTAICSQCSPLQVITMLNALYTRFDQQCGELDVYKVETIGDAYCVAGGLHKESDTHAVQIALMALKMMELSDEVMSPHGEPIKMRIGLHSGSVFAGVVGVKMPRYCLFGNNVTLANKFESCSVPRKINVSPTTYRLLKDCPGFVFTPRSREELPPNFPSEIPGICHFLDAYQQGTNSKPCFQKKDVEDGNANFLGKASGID
Kind of experiment: Purified human sGC enzyme activity assay (without SNP). The note with it: compound at 30 μM, absence of SNP; fold over DMSO control; Table 5A. The format is biochemical. In a few lines:
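Purified human sGC (5 ng) in 0.1 M Tris pH 8.0, 2 mM DTT, 2 mM MgCl2, 300 μM GTP, 1 mM IBMX, with compound at 10 or 30 μM final, 30 min at 37° C.; methanol-stopped. cGMP quantified against a standard curve; specific activity expressed as fold-change over DMSO control.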

The target in experiment [2] is T2, soluble guanylate cyclase (sGC) (Homo sapiens, UniProt Q02108+Q02153).
T2 construct: endogenously expressing soluble guanylate cyclase (sGC); endogenous in cells; host or cells: HEK293
T2 sequence (Q02153 1-619): T1 sequence (Q02153 1-619)
T2 sequence (Q02108 1-690): T1 sequence (Q02108 1-690)
Kind of experiment: sGC-HEK-cGMP assay (run with SNP incubation). Conditions: for Emax: Table 3A, 10 μM SNP, 100% = 30 μM BAY 41-2272 with 10 μM SNP, read-out: HEK assay Emax-unconstrained (Percent); for HEK MEC-10: concentration that would elicit 10% of the Emax in the presence of 10 μM SNP; for HEK MEC-10 / EC50: Table 3D; for EC50: in the presence of 10 μM SNP. Type of experiment: cell-based. In a few lines: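 HEK293 cells with endogenous sGC were pre-treated 15 min at 37 °C with 0.5 mM IBMX, then exposed to test compound plus sodium nitroprusside for 10 min at 37 °C. Cells were lysed in 0.1 M HCl (4 °C, 30 min), and cGMP was quantified by LC/MS against a standard curve. EC50 values came from concentration-response curves.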

Where [3] appears, read: top of concentration-response curve not fitted to 100%.
Setting [4] is: top of concentration-response curve not fitted to 100%, read-out: HEK assay EC50-unconstrained.

Broadly, the Emax is the maximal effect, on the per cent scale that the assay sets. For orientation: EC50 means the midpoint of the concentration-response curve.

As to `Nc1nc(-c2cc(-c3ccon3)n(Cc3ccccc3F)n2)ncc1NC(=O)C1(c2ccccc2)CC1` [Compound 27], the “Enzyme Activity (increase at 30 μM without SNP)” value in experiment [1] is on record as “D (10 or <20 fold increase)”. The Emax in experiment [2] (setting [3]) lay in the range of 80 to 100%. Further, the “HEK MEC-10” value in experiment [2] is reported as “B (0.01 to <0.1 μM)”. Also, the EC50 in experiment [2] (read-out: HEK assay EC50) was less than 20000 nM; in experiment [2] (setting [4]) it was 10 to 500 nM.
In the same order, the values of `Nc1nc(-c2cc(-c3ccon3)n(Cc3ccccc3F)n2)ncc1NC(=O)C1(F)CC1` [Compound 35] are “D (10 or <20 fold increase)”, 80 to 100%, “A (0.001 to <0.01 μM)”, less than 20000 nM and 10 to 500 nM.
In the same order, the values of `Nc1nc(-c2cc(-c3ccon3)n(Cc3cccc(F)c3F)n2)ncc1NC(=O)C1(C(F)(F)F)CC1` [Compound 40] are “C (5 to <10 fold increase)”, 80 to 100%, “C (0.1 to <1 μM)”, less than 20000 nM and 10 to 500 nM.
